# pEC50, pIC50, pKd: −log10 of the molar value. Entries after “also recorded” stand apart in the source; their conditions may differ.
# Tests used:
# [1] = system: SARS-CoV-2-pseudotyped lentivirus; assay type: cell-based; details: concentrations up to 100 μM
# [2] = biological target: human ACE2 (Homo sapiens, UniProt Q9BYF1); assay type: binding
# [3] = biological target: RBD-ACE2 binding (Severe acute respiratory syndrome coronavirus 2, UniProt P0DTC2); assay: ELISA ACE2:SARS-CoV-2 Spike inhibitor screening assay; details: 25–200 μM compounds
# [4] = system: authentic SARS-CoV-2; details: cited from earlier work
# [5] = system: SARS-CoV-2; assay: Authentic SARS-CoV-2 CPE reduction assay in Vero E6 cells; assay type: cell-based
# [6] = system: SARS-CoV-2; assay: Plaque formation assay; details: Vero E6
# [7] = system: Ebola virus; details: cited from earlier work
# [8] = system: HIV-1 protease; details: cited from earlier work
# [9] = 200 and 300 mg/kg/day oral, 7 days
# [10] = system: zika virus; details: cited from earlier work
# [11] = system: H1N1 influenza virus; details: cited from earlier work
# [12] = system: HEK293; assay type: cell-based, human; details: HEK293 cells
# [13] = biological target: RBD (Severe acute respiratory syndrome coronavirus 2, UniProt P0DTC2); details: streptavidin probes; cited from earlier work
# [14] = biological target: Spike-RBD protein (Severe acute respiratory syndrome coronavirus 2, UniProt P0DTC2); assay type: binding, SARS-CoV-2; details: BLI screening
# Chain of human ACE2 (Q9BYF1 18-805): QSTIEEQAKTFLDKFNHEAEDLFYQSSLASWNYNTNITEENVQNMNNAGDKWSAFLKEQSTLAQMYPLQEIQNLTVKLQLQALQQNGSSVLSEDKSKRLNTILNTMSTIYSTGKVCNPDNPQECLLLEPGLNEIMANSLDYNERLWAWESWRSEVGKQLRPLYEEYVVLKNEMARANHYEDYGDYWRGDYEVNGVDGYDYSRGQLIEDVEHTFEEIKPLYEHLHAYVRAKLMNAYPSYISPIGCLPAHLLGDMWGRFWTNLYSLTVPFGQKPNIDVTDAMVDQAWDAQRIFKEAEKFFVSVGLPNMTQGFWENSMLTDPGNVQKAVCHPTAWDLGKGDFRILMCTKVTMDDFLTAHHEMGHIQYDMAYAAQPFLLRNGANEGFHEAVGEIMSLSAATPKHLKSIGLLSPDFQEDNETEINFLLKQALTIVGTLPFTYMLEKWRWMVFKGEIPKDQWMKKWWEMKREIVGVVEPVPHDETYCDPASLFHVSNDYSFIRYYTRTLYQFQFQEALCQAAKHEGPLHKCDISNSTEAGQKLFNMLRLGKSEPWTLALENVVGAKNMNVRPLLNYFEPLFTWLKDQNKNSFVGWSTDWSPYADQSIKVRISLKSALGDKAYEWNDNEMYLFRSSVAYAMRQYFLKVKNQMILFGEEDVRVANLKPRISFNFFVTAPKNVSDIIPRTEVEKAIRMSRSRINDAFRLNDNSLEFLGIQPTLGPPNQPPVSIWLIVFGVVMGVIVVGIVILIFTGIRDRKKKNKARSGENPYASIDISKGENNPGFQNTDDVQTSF
compound,measurement,setting,value
"C=C[C@@](C)(/C=C/c1ccc(O)cc1)CCC=C(C)C [Bkc, bakuchiol]",inhibition of pseudovirus entry,[1],effectively inhibited pseudovirus entry
same,binding to ACE2 in BLI,[2],bound to ACE2 receptor
same,activity in ELISA (inhibition of RBD-ACE2 binding),[3],weakly active; also recorded: lacked activity
"CC(C)=CCc1cc2c(cc1O)O[C@H](c1ccc(O)cc1)CC2=O [Bvc, bavachin]",effect against authentic SARS-CoV-2,[4],effective against authentic SARS-CoV-2
same,activity in ELISA (inhibition of RBD-ACE2 binding),[3],high activities
"O=C(/C=C/c1ccc(O)c(O)c1)OC[C@H]1O[C@@H](OCCc2ccc(O)c(O)c2)[C@H](O)[C@@H](O)[C@@H]1O [CalB, calceolarioside B]",activity in ELISA (inhibition of RBD-ACE2 binding),[3],weakly active
"COc1ccc2cc1Oc1ccc(cc1)C[C@H]1c3c(cc4c(c3Oc3cc5c(cc3OC)CCN(C)[C@@H]5C2)OCO4)CCN1C [Ceph, cepharanthine]",effect against authentic SARS-CoV-2,[4],effective against authentic SARS-CoV-2
same,activity in ELISA (inhibition of RBD-ACE2 binding),[3],almost inactive
"O=C(O[C@@H]1Cc2c(O)cc(O)cc2O[C@@H]1c1cc(O)c(O)c(O)c1)c1cc(O)c(O)c(O)c1 [EGCG, epigallocatechin gallate]",inhibition of pseudovirus entry,[1],effectively inhibited pseudovirus entry
same,inhibition of SARS-CoV-2-induced cytopathic effect,[5],effective
same,inhibition of plaque formation,[6],effective
same,pEC50,[7],4.30
same,pIC50,[8],4.00 to 4.30
same,body weights,[9],no adverse effect
same,survival,[9],no adverse effect
same,organ weights,"[9]; liver, kidney, lung, spleen, thymus",no adverse effect
same,binding to ACE2 in BLI,[2],bound to ACE2 receptor
same,pEC50,[10],4.67
same,activity in ELISA (inhibition of RBD-ACE2 binding),[3],high activities
same,pEC50,[11],4.55 to 4.66
"CC(C)=CCc1c(O)ccc(C(=O)/C=C/c2ccc(O)cc2)c1O [Ibvc, isobavachalcone]",inhibition of pseudovirus entry,[1],effectively inhibited pseudovirus entry
same,inhibition of SARS-CoV-2-induced cytopathic effect,[5],effective
same,inhibition of plaque formation,[6],effective
same,binding to ACE2 in BLI,[2],bound to ACE2 receptor
same,activity in ELISA (inhibition of RBD-ACE2 binding),[3],weakly active; also recorded: lacked activity
"COc1ccc(C[C@@H]2c3cc(Oc4cc(C[C@@H]5c6cc(O)c(OC)cc6CCN5C)ccc4O)c(OC)cc3CCN2C)cc1 [Isl, isoliensinine]",inhibition of plaque formation,[6],inhibited plaque formation
same,cytotoxicity,[12],toxicity
same,effect against authentic SARS-CoV-2,[4],effective against authentic SARS-CoV-2
same,activity in ELISA (inhibition of RBD-ACE2 binding),[3],high activities
"O=C(/C=C/c1ccc(O)c(O)c1/C=C/c1ccc(O)c(O)c1)O[C@H](Cc1ccc(O)c(O)c1)C(=O)O [SalA, salvianolic acid A]",inhibition of pseudovirus entry,[1],weakly inhibited pseudovirus entry
same,inhibition of SARS-CoV-2-induced cytopathic effect,[5],effective
same,inhibition of plaque formation,[6],effective
same,activity in ELISA (inhibition of RBD-ACE2 binding),[3],high activities
"O=C(/C=C/c1ccc(O)c2oc(-c3ccc(O)c(O)c3)cc12)O[C@H](Cc1ccc(O)c(O)c1)C(=O)O [SalC, Salvianolic acid C]",binding activity to RBD measured by BLI,[13],weak binding activity to RBD
same,pKd,[14],5.21
"C[C@H]1CC[C@@]2(OC1)O[C@H]1C[C@H]3[C@@H]4CC[C@@H]5C[C@@H](O[C@@H]6O[C@H](CO)[C@H](O)[C@H](O)[C@H]6O[C@@H]6O[C@H](CO)[C@@H](O)[C@H](O)[C@H]6O)CC[C@]5(C)[C@H]4CC[C@]3(C)[C@H]1[C@@H]2C [TimA, timosaponin A III]",activity in ELISA (inhibition of RBD-ACE2 binding),[3],almost inactive
bavachinin [Bvcn],activity in ELISA (inhibition of RBD-ACE2 binding),[3],high activities

# Reference: publication PMC8364251 (Pharmacological Research, 2021)
